Where a SMILES comes first, the peptide text is derived from it. The star is where a group is joined. Cbz = O=C(OCc1ccccc1)*; CH2F = FC*
What was measured:
[1] = target: T1, RIP-1 (Rattus norvegicus, UniProt D3ZYL0); test: RIP-1 phosphorylation after retinal detachment (RIP-1 immunoprecipitation, anti-phosphoserine Western blot); type: in vivo; conditions: two days after retinal detachment; subretinal Z-VAD 300 μM and/or Nec-1 400 μM at detachment
T1 construct: RIP-1 was immunoprecipitated from lysates of untreated retina and of retina treated with either vehicle, Nec-1, Z-VAD, or Nec-1+Z-VAD; from tissue; host or cells: retina (retinal lysates) of animals with experimental retinal detachment
T1 sequence (D3ZYL0 1-658): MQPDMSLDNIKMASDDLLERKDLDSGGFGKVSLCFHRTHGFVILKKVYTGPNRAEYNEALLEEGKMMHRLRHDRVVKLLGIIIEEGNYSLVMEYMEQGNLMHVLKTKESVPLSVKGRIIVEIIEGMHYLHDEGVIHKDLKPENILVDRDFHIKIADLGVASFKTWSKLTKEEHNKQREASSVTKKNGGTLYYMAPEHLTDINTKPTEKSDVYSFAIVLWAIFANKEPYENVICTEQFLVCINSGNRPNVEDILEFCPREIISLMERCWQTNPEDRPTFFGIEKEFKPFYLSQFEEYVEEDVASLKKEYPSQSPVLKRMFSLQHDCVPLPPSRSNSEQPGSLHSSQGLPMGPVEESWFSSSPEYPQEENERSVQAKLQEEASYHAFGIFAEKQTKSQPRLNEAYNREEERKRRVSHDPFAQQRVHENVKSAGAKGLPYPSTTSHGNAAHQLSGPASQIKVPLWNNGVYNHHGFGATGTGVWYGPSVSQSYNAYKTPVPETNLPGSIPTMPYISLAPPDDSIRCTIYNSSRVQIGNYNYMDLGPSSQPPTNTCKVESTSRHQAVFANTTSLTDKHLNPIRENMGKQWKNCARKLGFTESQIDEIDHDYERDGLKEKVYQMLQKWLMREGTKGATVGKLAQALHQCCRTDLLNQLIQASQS
Procedure: Equal amount of retinal lysates (1 mg) were incubated with 1 μg anti-RIP-1 antibody (BD Biosciences) and 20 μl of Protein A/G Agarose beads (Thermo Scientific, Rockford, Ill.) at 4° C. overnight. Beads were washed 5 times with lysis buffer and TBS, and the immunopellets were then subjected to Western blotting.
RIP-1 is phosphorylated at several serine residues in its kinase domain during programmed necrosis and Nec-1 inhibits this phosphorylation (Degterev (2008) supra; Cho Y et al. (2009) Cell 137:1100-1111). To investigate the role of RIP-1 kinase in retinal detachment-induced photoreceptor death, the phosphorylation status of RIP-1 was first assessed by immunoprecipitating RIP-1 from the retina (FIG. 3A) and then blotting with an anti-phosphoserine antibody. RIP-1 was immunoprecipitated from retinal lysates. One mg of retinal lysates were incubated with anti-RIP-1 antibody and Protein A/G agarose beads. Extracts before (Pre) and after (Post) immunoprecipitation and the immunopellets (IP) were run on a 4-12% SDS-PAGE and blotted with anti-RIP-1 antibody. […]
To determine the effect of Nec-1 and a pan-caspase inhibitor on the phosphorylation of RIP-1, Z-VAD (300 μM) and/or a Nec-1 compound of Formula I-C (400 μM) were injected subretinally in the animal at the time of retinal detachment induction. […] Phosphorylation of RIP-1 was then assessed by Western blot analysis. […]

[2] = tested on: photoreceptors; test: TUNEL-positive cells after retinal detachment in RIP-3−/− mice; type: in vivo; conditions: three days after retinal detachment
Procedure: The role of RIP-3 in RIP-mediated programmed necrosis in photoreceptor loss after retinal detachment was investigated in RIP-3 knockout (RIP-3−/−) mice. TUNEL assays were used to measure the amount of apoptotic and necrotic cell death (Grasl-Kraupp et al., HEPTALOGY (1995) 21(5):1465-8). TUNEL and quantification of TUNEL positive cells in ONL were performed as described above by using the ApopTag Fluorescein In Situ Apoptosis Detection Kit (Millipore, Billerica, Mass.).

[3] = tested on: CD11b-positive macrophage/microglia; test: CD11b immunohistochemistry after retinal detachment; type: in vivo; conditions: day three after retinal detachment
Procedure: Immunohistochemistry (IHC) was performed as previously reported (Murakami Y et al. (2008) AM J PATHOL 173:1326-1338). Rat anti-CD11b antibody (1:50; BD Biosciences, San Diego, Calif.) was used as the primary antibody. The specimens were imaged by confocal microscopy using the Leica HCX APOL40× lens.
Since the release of intracellular content in necrosis results in secondary inflammation, changes in the inflammatory response after retinal detachment were investigated by immunohistochemistry and immunofluorescence with an antibody against CD11b. FIG. 11A-B show IHC for CD11b (FIG. 11A) and quantification of CD11b-positive cells in control retina without retinal detachment and in retina treated with vehicle, Z-VAD or Z-VAD+Nec-1 (n=6 each) (FIG. 11B) at three days after retinal detachment. (*, P<0.05; **, P<0.01; NS, not significant; Scale bar, 50 μm).

[4] = tested on: photoreceptors; test: TUNEL-positive photoreceptors in ONL after experimental retinal detachment; type: in vivo, rat; conditions: day three after retinal detachment; subretinal Z-VAD 300 μM and/or Nec-1 400 μM at detachment
[5] = tested on: photoreceptors; test: Poly I:C-induced dry AMD model, TUNEL-positive cells in ONL; type: in vivo, mice; conditions: compared with vehicle
Description: In this example, the mechanism of photoreceptor cell death in dry AMD was investigated using a polyinosinic:polycytidylic acid (Poly I:C)-induced dry AMD model (Yang et al. (2009) NEJM 359(14):1456-63). Poly I:C is a synthetic double-stranded RNA (dsRNA) analog that activates toll-like receptor 3 (TLR3) signaling (FIG. 20A). Furthermore, dsRNA are known to exist in the drusen of human AMD patients. As depicted in FIG. 20A, activation of the TLR3 signaling results in activation of RIP-1 kinase pathway. […] In the experiments described herein, 2-3 μl of Poly I:C (1 mg/ml) was injected into the subretinal space of the eye (e.g., approximately 2-3 μg of Poly I:C was administered to the eye) to induce AMD.
The thickness of the ONL was determined by the National Institutes of Health ImageJ software. […] Specifically, the number of TUNEL-positive cells in the RIP-3−/− mice treated with poly I:C was at least three fold less than control mice consistent with RIP-3 playing a role in mediating programmed necrosis in AMD (FIG. 22B).
To determine the effect of Nec-1 and a pan-caspase inhibitor in the treatment of AMD, TUNEL assay was performed to assess photoreceptor cell death in the poly I:C induced AMD model. […] The thickness of ONL was also measured.

## COC(=O)CC(NC(=O)C(C)NC(=O)C(NC(=O)OCc1ccccc1)C(C)C)C(=O)CF (stereo not drawn) [Z-VAD, Benzyloxycarbonyl-Val-Ala-Asp(OMe)-fluoromethylketone] (Cbz-Val-Ala-Asp(OMe)-CH2F; configuration not given here)
[1]
  RIP-1 phosphorylation: elevated
[2]
  number of TUNEL-positive cells: 407.7±188.9 cells/mm^2
[3]
  infiltration of CD11b-positive cells in the retina: 514.7±54.5 cells/mm^2
[4]
  number of TUNEL-positive cells in the ONL: 1134.7±297.5 cells/mm^2
[5]
  number of TUNEL-positive cells in ONL: slight effect

— US10639345B2, “Compositions for preserving photoreceptor cells, retinal pigment epithelial cells, or visual function” (Massachusetts Eye and Ear Infirmary, priority 2010, dated 2020)
